In the OligoGym collection one finds 3 h FOB score data, which are given here for 26 substances.

HELM strings list units from the 5' end as sugar, base in round brackets, then linkage (d deoxyribose, r ribose, m 2'-O-methyl, p phosphodiester). Strings are as the collection lists them; they lack the last nucleoside at the 3' end of the tested compound. [moe] = 2'-O-(2-methoxyethyl) (MOE); [sp] = phosphorothioate linkage; [m5C] = 5-methylcytosine

In this series the target is ATXN2. In words: mouse, dose not given. The note with it: ASO.

“RNA1{[moe](T)[sp].[moe](T)p.[moe]([m5C])p.[moe](T)p.[moe]([m5C])[sp].d(T)[sp].d(A)[sp].d(T)[sp].d(T)[sp].d(T)[sp].d([m5C])[sp].d(T)[sp].d(T)[sp].[moe](T)p.[moe](G)p.[moe](T)[sp].[moe]([m5C])}$$$$ (last 3' nucleoside missing)” registered a 3 h FOB score of 1 score 0-7.
Next, “RNA1{[moe](T)[sp].[moe](T)p.[moe]([m5C])p.[moe](T)p.[moe]([m5C])[sp].d(T)[sp].d(A)[sp].d(T)[sp].d(T)[sp].d(T)[sp].d([m5C])[sp].d(T)[sp].d(T)[sp].d(T)[sp].d(G)[sp].[moe](T)p.[moe]([m5C])p.[moe]([m5C])[sp].[moe](A)}$$$$ (last 3' nucleoside missing)”: 4 score 0-7; “RNA1{[moe](T)[sp].[moe](T)p.[moe]([m5C])p.[moe](T)p.[moe]([m5C])p.[moe](T)p.d(A)[sp].d(T)[sp].d(T)[sp].d(T)[sp].d([m5C])[sp].d(T)[sp].d(T)[sp].d(T)[sp].d(G)[sp].d(T)[sp].[moe]([m5C])p.[moe]([m5C])[sp].[moe](A)}$$$$ (last 3' nucleoside missing)”: 4 score 0-7.
Next, “RNA1{[moe](T)[sp].[moe](T)p.[moe]([m5C])p.[moe](T)p.[moe]([m5C])p.d(T)[sp].d(A)[sp].d(T)[sp].d(T)[sp].d(T)[sp].d([m5C])[sp].d(T)[sp].d(T)[sp].d(T)[sp].d(G)[sp].[moe](T)p.[moe]([m5C])p.[moe]([m5C])[sp].[moe](A)}$$$$ (last 3' nucleoside missing)”: 3 score 0-7; “RNA1{[moe](T)[sp].[moe](T)p.[moe]([m5C])p.[moe](T)p.d([m5C])[sp].d(T)[sp].d(A)[sp].d(T)[sp].d(T)[sp].d(T)[sp].d([m5C])[sp].d(T)[sp].d(T)[sp].d(T)[sp].[moe](G)p.[moe](T)p.[moe]([m5C])p.[moe]([m5C])[sp].[moe](A)}$$$$ (last 3' nucleoside missing)”: 4 score 0-7.
In the case of “RNA1{[moe](T)[sp].[moe]([m5C])p.[moe](A)p.[moe](G)p.[moe](A)p.d([m5C])[sp].d(T)[sp].d(T)[sp].d([m5C])[sp].d(T)[sp].d(T)[sp].d(G)[sp].d(T)[sp].d(T)[sp].d(G)[sp].[moe](T)p.[moe](T)p.[moe](G)[sp].[moe](T)}$$$$ (last 3' nucleoside missing)” it was 2 score 0-7; in that of “RNA1{[moe](T)[sp].[moe]([m5C])p.[moe](A)p.[moe](T)p.[moe](G)p.d(G)[sp].d([m5C])[sp].d(T)[sp].d([m5C])[sp].d([m5C])[sp].d(A)[sp].d(A)[sp].d(T)[sp].d(A)[sp].d(T)[sp].[moe]([m5C])p.[moe](G)p.[moe](G)[sp].[moe]([m5C])}$$$$ (last 3' nucleoside missing)”, 2.25 score 0-7.
Substance “RNA1{[moe](T)[sp].[moe]([m5C])p.[moe](A)p.[moe](T)p.[moe](T)p.d(T)[sp].d(T)[sp].d(A)[sp].d(T)[sp].d(T)[sp].d([m5C])[sp].d(T)[sp].d(G)[sp].d([m5C])[sp].d(T)[sp].[moe](T)p.[moe](T)p.[moe](G)[sp].[moe]([m5C])}$$$$ (last 3' nucleoside missing)” returned a 3 h FOB score of 2 score 0-7.
Next, “RNA1{[moe](T)[sp].[moe]([m5C])p.[moe](A)p.[moe](T)p.[moe]([m5C])[sp].d(A)[sp].d(T)[sp].d(T)[sp].d(T)[sp].d(T)[sp].d([m5C])[sp].d([m5C])[sp].d(A)[sp].[moe](G)p.[moe](G)p.[moe](G)[sp].[moe]([m5C])}$$$$ (last 3' nucleoside missing)”: 1 score 0-7; “RNA1{[moe](T)[sp].[moe]([m5C])p.[moe](G)p.[moe](T)p.[moe](A)p.d(T)[sp].d(G)[sp].d(T)[sp].d(T)[sp].d(T)[sp].d(G)[sp].d(T)[sp].d([m5C])[sp].d(T)[sp].d(G)[sp].[moe](T)p.[moe]([m5C])p.[moe](T)[sp].[moe](T)}$$$$ (last 3' nucleoside missing)”: 6.25 score 0-7.
In the case of “RNA1{[moe](T)[sp].[moe]([m5C])p.[moe](T)p.[moe](A)p.[moe](T)[sp].d(T)[sp].d(T)[sp].d([m5C])[sp].d(T)[sp].d(T)[sp].d(T)[sp].d(G)[sp].d(T)[sp].[moe]([m5C])p.[moe]([m5C])p.[moe](A)[sp].[moe](G)}$$$$ (last 3' nucleoside missing)” it was 5 score 0-7; in that of “RNA1{[moe](T)[sp].[moe]([m5C])p.[moe](T)p.[moe](A)p.[moe](T)p.d(T)[sp].d(T)[sp].d([m5C])[sp].d(T)[sp].d(T)[sp].d(T)[sp].d(G)[sp].d(T)[sp].d([m5C])[sp].d([m5C])[sp].[moe](A)p.[moe](G)p.[moe](G)[sp].[moe](A)}$$$$ (last 3' nucleoside missing)”, 6.5 score 0-7; in that of “RNA1{[moe](T)[sp].[moe]([m5C])p.[moe](T)p.[moe](G)[sp].[moe](T)[sp].d(A)[sp].d([m5C])[sp].d(T)[sp].d(T)[sp].d(T)[sp].d(T)[sp].d([m5C])[sp].d(T)[sp].d([m5C])[sp].d(A)[sp].[moe](T)p.[moe](G)p.[moe](T)[sp].[moe](G)}$$$$ (last 3' nucleoside missing)”, 1 score 0-7.
In the case of “RNA1{[moe](T)[sp].[moe]([m5C])p.[moe](T)p.[moe](G)p.[moe](T)[sp].d(A)[sp].d([m5C])[sp].d(T)[sp].d(T)[sp].d(T)[sp].d(T)[sp].d([m5C])[sp].d(T)[sp].[moe]([m5C])p.[moe](A)p.[moe](T)[sp].[moe](G)}$$$$ (last 3' nucleoside missing)” it was 0.5 score 0-7.
Take “RNA1{[moe](T)[sp].[moe]([m5C])p.[moe](T)p.[moe](G)p.[moe](T)[sp].d(A)[sp].d([m5C])[sp].d(T)[sp].d(T)[sp].d(T)[sp].d(T)[sp].d([m5C])[sp].d(T)[sp].d([m5C])[sp].d(A)[sp].[moe](T)p.[moe](G)p.[moe](T)[sp].[moe](G)}$$$$ (last 3' nucleoside missing)”: the 3 h FOB score worked out at 0 score 0-7.
In the case of “RNA1{[moe](T)[sp].[moe]([m5C])p.[moe](T)p.[moe](G)p.[moe](T)p.[moe](A)p.d([m5C])[sp].d(T)[sp].d(T)[sp].d(T)[sp].d(T)[sp].d([m5C])[sp].d(T)[sp].d([m5C])[sp].d(A)[sp].d(T)[sp].[moe](G)p.[moe](T)[sp].[moe](G)}$$$$ (last 3' nucleoside missing)” it was 1 score 0-7; in that of “RNA1{[moe](T)[sp].[moe]([m5C])p.[moe](T)p.[moe](G)p.[moe](T)p.d(A)[sp].d([m5C])[sp].d(T)[sp].d(T)[sp].d(T)[sp].d(T)[sp].d([m5C])[sp].d(T)[sp].d([m5C])[sp].d(A)[sp].[moe](T)p.[moe](G)p.[moe](T)[sp].[moe](G)}$$$$ (last 3' nucleoside missing)”, 0 score 0-7; in that of “RNA1{[moe](T)[sp].[moe]([m5C])p.[moe](T)p.[moe](G)p.[moe]([m5C])[sp].d(T)[sp].d(A)[sp].d(A)[sp].d([m5C])[sp].d(T)[sp].d(G)[sp].d(G)[sp].d(T)[sp].[moe](T)p.[moe](T)p.[moe](G)[sp].[moe]([m5C])}$$$$ (last 3' nucleoside missing)”, 2 score 0-7.
“RNA1{[moe](T)[sp].[moe]([m5C])p.[moe](T)p.[moe](G)p.[moe]([m5C])p.d(T)[sp].d(A)[sp].d(A)[sp].d([m5C])[sp].d(T)[sp].d(G)[sp].d(G)[sp].d(T)[sp].d(T)[sp].d(T)[sp].[moe](G)p.[moe]([m5C])p.[moe]([m5C])[sp].[moe]([m5C])}$$$$ (last 3' nucleoside missing)” returned a 3 h FOB score of 3 score 0-7.
In the case of “RNA1{[moe](T)[sp].[moe]([m5C])p.[moe](T)p.[moe](G)p.d(T)[sp].d(A)[sp].d([m5C])[sp].d(T)[sp].d(T)[sp].d(T)[sp].d(T)[sp].d([m5C])[sp].d(T)[sp].d([m5C])[sp].[moe](A)p.[moe](T)p.[moe](G)p.[moe](T)[sp].[moe](G)}$$$$ (last 3' nucleoside missing)” it was 0 score 0-7; in that of “RNA1{[moe](T)[sp].[moe]([m5C])p.[moe](T)p.[moe](T)p.[moe](G)p.d(T)[sp].d(T)[sp].d(G)[sp].d(T)[sp].d(T)[sp].d(G)[sp].d(T)[sp].d(T)[sp].d(T)[sp].d(A)[sp].[moe]([m5C])p.[moe](A)p.[moe](T)[sp].[moe](T)}$$$$ (last 3' nucleoside missing)”, 3 score 0-7; in that of “RNA1{[moe](T)[sp].[moe]([m5C])p.[moe](T)p.[moe]([m5C])p.[moe](T)[sp].d(A)[sp].d(T)[sp].d(T)[sp].d(T)[sp].d([m5C])[sp].d(T)[sp].d(T)[sp].d(T)[sp].[moe](G)p.[moe](T)p.[moe]([m5C])[sp].[moe]([m5C])}$$$$ (last 3' nucleoside missing)”, 1 score 0-7.
Next, “RNA1{[moe](T)[sp].[moe]([m5C])p.[moe](T)p.[moe]([m5C])p.[moe](T)p.d(A)[sp].d(T)[sp].d(T)[sp].d(T)[sp].d([m5C])[sp].d(T)[sp].d(T)[sp].d(T)[sp].d(G)[sp].d(T)[sp].[moe]([m5C])p.[moe]([m5C])p.[moe](A)[sp].[moe](G)}$$$$ (last 3' nucleoside missing)”: 6.75 score 0-7.
Next, “RNA1{[moe](T)[sp].[moe]([m5C])p.[moe](T)p.[moe]([m5C])p.[moe]([m5C])[sp].d(A)[sp].d(T)[sp].d(T)[sp].d(A)[sp].d(T)[sp].d(T)[sp].d(T)[sp].d([m5C])[sp].[moe](T)p.[moe](T)p.[moe]([m5C])[sp].[moe](A)}$$$$ (last 3' nucleoside missing)”: 1 score 0-7; “RNA1{[moe](T)[sp].[moe]([m5C])p.[moe](T)p.[moe]([m5C])p.[moe]([m5C])p.d(A)[sp].d(T)[sp].d(T)[sp].d(A)[sp].d(T)[sp].d(T)[sp].d(T)[sp].d([m5C])[sp].d(T)[sp].d(T)[sp].[moe]([m5C])p.[moe](A)p.[moe]([m5C])[sp].[moe](G)}$$$$ (last 3' nucleoside missing)”: 0.75 score 0-7.
Regarding “RNA1{[moe](T)[sp].[moe]([m5C])p.[moe]([m5C])p.[moe](A)p.[moe](A)p.d(G)[sp].d(T)[sp].d(A)[sp].d(A)[sp].d([m5C])[sp].d(A)[sp].d(G)[sp].d(T)[sp].d(G)[sp].d(T)[sp].[moe](A)p.[moe](G)p.[moe](A)[sp].[moe](A)}$$$$ (last 3' nucleoside missing)”, the 3 h FOB score is 4 score 0-7.
